Read-outs that look alike come from different tables or passages of the source.

Type in all cases: in vivo
Assay [1] relates to Beet Armyworm (Spodoptera exigua, LAPHEG). The experiment in a line: Bioassay on Beet Armyworm (BAW), 128-well diet tray assay. Put shortly: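 Artificial diet surface-treated with 50 μg/cm^2 test molecule in 90:10 acetone-water, dried, then infested with one to five second instar larvae per well. Held covered and vented at 25° C., 14:10 light-dark for five to seven days; percent mortality recorded per well and averaged over eight wells.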

The subject of assay [2] is Cabbage Looper (Trichoplusia ni, TRIPNI). The experiment in a line: Bioassay on Cabbage Looper (CL), 128-well diet tray assay. The settings on record: Trichoplusia ni. Put shortly:
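Diet-incorporation-free surface assay: 50 μg/cm^2 compound in acetone-water (90:10), dried on diet; 1–5 2nd-instar larvae/well; 8 wells; vented cover; 25° C., 14:10 L:D, 5–7 d; % mortality averaged over wells.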

Assay [3] relates to Yellow Fever Mosquito (Aedes aegypti, AEDSAE). The assay can be described thus: Bioassay on Yellow Fever Mosquito (YFM), 96-well plate larval assay. Particulars: for YFM (Biological Results, rating): Species YFM (Yellow Fever Mosquito); for YFM rating: Yellow Fever Mosquito, 96-well plate larval assay. Put shortly: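 Each well was scored for mortality after 3 days at room temperature under a non-evaporative lid. Test molecules came from DMSO masters (4000 ppm stock) diluted with water/acetone 90:10 and dispensed into six replicate plates, which were then infested with roughly 1-day-old larvae in liver-powder water.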

The mark [4] stands for this setting: Species BAW (Beet Armyworm), read-out: BAW (Biological Results, rating).
Setting [5] is: Species CL (Cabbage Looper), read-out: CL (Biological Results, rating).
[6] abbreviates: Beet Armyworm, 128-well diet tray assay, read-out: BAW rating.
The mark [7] stands for this setting: Cabbage Looper, 128-well diet tray assay, read-out: CL rating.

On to `C=Cc1cc(Cl)cc([C@H]2[C@H](C(=O)Nc3ccc(Cl)c(C(=O)Nc4ccc(F)cc4)c3)C2(Cl)Cl)c1` (relative stereo) [F350, 2-Chloro-5-(trans-2,2-dichloro-3-(3-chloro-5-vinylphenyl)cyclopropane-1-carboxamido)-N-(4-fluorophenyl)benzamide], for which the pest or weed control at 50 µg/cm2 in assay [1] (setting [4]) and in assay [2] (setting [5]) was 50 to 100% throughout. For the same compound, the “YFM (Biological Results, rating)” value in assay [3] is “A (80-100)”.

For `O=C(Nc1ccc(Cl)cc1F)c1cc(NC(=O)C2C(c3cc(Cl)cc(Cl)c3)C2(Cl)Cl)ccc1Cl` (stereo not drawn) [PF116, 2-Chloro-N-(4-chloro-2-fluorophenyl)-5-(trans)-2,2-dichloro-3-(3,5-dichlorophenyl)cyclopropane-1-carboxamido)benzamide], the pest or weed control at 50 µg/cm2 in assay [1] (setting [6]) and in assay [2] (setting [7]) was 50 to 100% each time. Besides, the YFM rating entry in assay [3] is “B (More than 0-Less than 80)”.

In the case of `Cc1cc(/N=C/c2ccc(Cl)cc2)ccc1NC(=O)c1cc(NC(=O)C2C(c3cc(Cl)cc(Cl)c3)C2(Cl)Cl)ccc1Cl` (stereo not drawn) [F510], the pest or weed control at 50 µg/cm2 in assay [1] (setting [6]) and in assay [2] (setting [7]) was 50 to 100% each time. In addition, the YFM rating entry in assay [3] is recorded as “A (80-100)”.

For the compound `O=C(Nc1ccc2c(c1)CCCN2)c1cc(NC(=O)[C@H]2[C@H](c3cc(Cl)cc(Cl)c3)C2(Cl)Cl)ccc1Cl` (relative stereo) [F492, 2-Chloro-5-(trans)-(2,2-dichloro-3-(3,5-dichlorophenyl)cyclopropane-1-carboxamido)-N-(1,2,3,4-tetrahydroquinolin-6-yl)benzamide], the pest or weed control at 50 µg/cm2 in assay [1] (setting [6]) and in assay [2] (setting [7]) was 50 to 100% throughout. For the same compound, the YFM rating entry in assay [3] was “A (80-100)”.

Take `Cc1cc(N)ccc1NC(=O)c1cc(NC(=O)[C@H]2[C@H](c3cc(Cl)c(Cl)c(Cl)c3)C2(Cl)Cl)ccc1Cl` [F286, N-(4-Amino-2-methylphenyl)-2-chloro-5-((1R,3R)-2,2-dichloro-3-(3,4,5-trichlorophenyl)cyclopropane-1-carboxamido)benzamide]: the pest or weed control at 50 µg/cm2 in assay [1] (setting [4]) and in assay [2] (setting [5]) was 50 to 100% throughout. Further, in assay [3], the “YFM (Biological Results, rating)” value was “A (80-100)”.

For the compound `O=C(CC(F)(F)F)Nc1ccc(NC(=O)c2cc(NC(=O)[C@H]3[C@H](c4cc(Cl)cc(Cl)c4)C3(Cl)Cl)ccc2Cl)cc1` (relative stereo) [PF25, trans-2-chloro-5-(2,2-dichloro-3-(3,5-dichlorophenyl)cyclopropane-1-carboxamido)-N-(4-(3,3,3-trifluoropropanamido)phenyl)benzamide], the pest or weed control at 50 µg/cm2 in assay [1] (setting [6]) and in assay [2] (setting [7]) was 50 to 100% in each case. For the same compound, the YFM rating result in assay [3] is given as “B (More than 0-Less than 80)”.

For the compound `C=Cc1cc([C@H]2[C@H](C(=O)Nc3ccc(Cl)c(C(=O)Nc4ccc(F)cc4F)c3)C2(Cl)Cl)ccc1F` (relative stereo) [F390, 2-Chloro-5-(trans-2,2-dichloro-3-(4-fluoro-3-vinylphenyl)cyclopropane-1-carboxamido)-N-(2,4-difluorophenyl)benzamide], the pest or weed control at 50 µg/cm2 in assay [1] (setting [6]) and in assay [2] (setting [7]) was 50 to 100% throughout. Further, in assay [3], the YFM rating result is reported as “A (80-100)”.

Turning to `Cc1cc(N)ccc1NC(=O)c1cccc(NC(=O)[C@H]2[C@H](c3cc(Cl)cc(Cl)c3)C2(Cl)Cl)c1` (relative stereo) [F266, trans-N-(4-Amino-2-methylphenyl)-3-(2,2-dichloro-3-(3,5-dichlorophenyl)cyclopropane-1-carboxamido)benzamide], the pest or weed control at 50 µg/cm2 in assay [1] (setting [4]) and in assay [2] (setting [5]) was 50 to 100% in each case. In assay [3], the “YFM (Biological Results, rating)” value is “A (80-100)”.

Regarding `COc1cc(NC(=O)c2cc(NC(=O)[C@H]3[C@H](c4cc(Cl)cc(Cl)c4)C3(Cl)Cl)ccc2Cl)ccc1C#N` (relative stereo) [F234, 2-Chloro-N-(4-cyano-3-methoxyphenyl)-5-(trans-2,2-dichloro-3-(3,5-dichlorophenyl)cyclopropane-1-carboxamido)benzamide], the pest or weed control at 50 µg/cm2 in assay [1] (setting [4]) and in assay [2] (setting [5]) was 50 to 100% throughout. Further, the “YFM (Biological Results, rating)” value in assay [3] is on record as “A (80-100)”.

In the case of `O=C(Nc1cc2cc[nH]c2cn1)c1cc(NC(=O)[C@H]2[C@H](c3cc(Cl)cc(Cl)c3)C2(Cl)Cl)ccc1Cl` (relative stereo) [F474, 2-Chloro-5-(trans)-(2,2-dichloro-3-(3,5-dichlorophenyl)cyclopropane-1-carboxamido)-N-(1H-pyrrolo[2,3-c]pyridin-5-yl)benzamide], the pest or weed control at 50 µg/cm2 in assay [1] (setting [6]) and in assay [2] (setting [7]) was 50 to 100% throughout. The YFM rating entry in assay [3] is given as “A (80-100)”.

As to `O=C(Nc1ccc(F)cc1F)c1cc(NC(=O)[C@H]2[C@H](c3cc(Cl)cc(Cl)c3)C2(Cl)Cl)ccc1Cl` [F185, 2-Chloro-5-((1R,3R)-2,2-dichloro-3-(3,5-dichlorophenyl)cyclopropane-1-carboxamido)-N-(2,4-difluorophenyl)benzamide], the pest or weed control at 50 µg/cm2 in assay [1] (setting [4]) and in assay [2] (setting [5]) was 50 to 100% each time. Also, the “YFM (Biological Results, rating)” value in assay [3] is reported as “B (More than 0-Less than 80)”.

On to `N#Cc1ccc(NC(=O)c2cc(NC(=O)[C@H]3[C@H](c4cc(Cl)cc(Cl)c4)C3(Cl)Cl)ccc2Cl)nc1` (relative stereo) [PF143, trans-2-Chloro-N-(5-cyanopyridin-2-yl)-5-(2,2-dichloro-3-(3,5-dichlorophenyl)cyclopropane-1-carboxamido)benzamide], for which the pest or weed control at 50 µg/cm2 in assay [1] (setting [6]) and in assay [2] (setting [7]) was 50 to 100% throughout. For the same compound, the YFM rating entry in assay [3] was “A (80-100)”.

Regarding `O=C(Nc1ncc(F)cc1F)c1cc(NC(=O)[C@H]2[C@H](c3ccc(Cl)c(C(F)F)c3)C2(Cl)Cl)ccc1Cl` (relative stereo) [F585, 2-Chloro-5-(trans-2,2-dichloro-3-(4-chloro-3-(difluoromethyl)phenyl)cyclopropane-1-carboxamido)-N-(3,5-difluoropyridin-2-yl)benzamide], the pest or weed control at 50 µg/cm2 in assay [1] (setting [6]) and in assay [2] (setting [7]) was 50 to 100% throughout. Further, in assay [3], the YFM rating entry is “A (80-100)”.

On to `CC1(c2cc(Cl)cc(Cl)c2)C(C(=O)Nc2ccc(Cl)c(C(=O)Nc3ccc(F)cc3)c2)C1(Cl)Cl` (stereo not drawn) [F251, 2-Chloro-5-trans-(2,2-dichloro-3-(3,5-dichlorophenyl)-3-methylcyclopropane-1-carboxamido)-N-(4-fluorophenyl)benzamide], for which the pest or weed control at 50 µg/cm2 in assay [1] (setting [4]) and in assay [2] (setting [5]) was 50 to 100% throughout. Moreover, in assay [3], the “YFM (Biological Results, rating)” value is given as “A (80-100)”.

Consider `O=C(Nc1ccc2cc[nH]c2n1)c1cc(NC(=O)C2C(c3cc(Cl)cc(Cl)c3)C2(Cl)Cl)ccc1Cl` (stereo not drawn) [F178, 2-Chloro-5-(trans)-2,2-dichloro-3-(3,5-dichlorophenyl)cyclopropane-1-carboxamido)-N-(1H-pyrrolo[2,3-b]pyridin-6-yl)benzamide], for which the pest or weed control at 50 µg/cm2 in assay [1] (setting [4]) and in assay [2] (setting [5]) was 50 to 100% each time. For the same compound, the “YFM (Biological Results, rating)” value in assay [3] is given as “B (More than 0-Less than 80)”.

Take `O=C(Nc1ccc(F)cc1F)c1cc(NC(=O)[C@H]2[C@H](c3cccc(C(F)F)c3)C2(Cl)Cl)ccc1Cl` (relative stereo) [F564, 2-Chloro-5-(trans-2,2-dichloro-3-(3-(difluoromethyl)phenyl)cyclopropane-1-carboxamido)-N-(2,4-difluorophenyl)benzamide]: the pest or weed control at 50 µg/cm2 in assay [1] (setting [6]) and in assay [2] (setting [7]) was 50 to 100% each time. In addition, the YFM rating entry in assay [3] is on record as “A (80-100)”.

On to `O=C(Nc1ccc(F)cc1F)c1cc(NC(=O)[C@@H]2[C@@H](c3cc(Cl)c(Cl)c(Cl)c3)C2(Cl)Cl)ccc1Cl` [F282, 2-Chloro-5-((1S,3S)-2,2-dichloro-3-(3,4,5-trichlorophenyl)cyclopropane-1-carboxamido)-N-(2,4-difluorophenyl)benzamide], for which the pest or weed control at 50 µg/cm2 in assay [1] (setting [4]) and in assay [2] (setting [5]) was 50 to 100% in each case. For the same compound, the “YFM (Biological Results, rating)” value in assay [3] is given as “A (80-100)”.

With `O=C(Nc1ncc(F)c(I)c1F)c1cc(NC(=O)[C@H]2[C@H](c3cc(Cl)cc(Cl)c3)C2(Cl)Cl)ccc1Cl` (relative stereo) [F388, 2-Chloro-5-(trans-2,2-dichloro-3-(3,5-dichlorophenyl)cyclopropane-1-carboxamido)-N-(3,5-difluoro-4-iodopyridin-2-yl)benzamide], the pest or weed control at 50 µg/cm2 in assay [1] (setting [6]) and in assay [2] (setting [7]) was 50 to 100% in each case. Besides, the YFM rating entry in assay [3] is on record as “A (80-100)”.

`Nc1c(F)ccc(NC(=O)c2cc(NC(=O)[C@H]3[C@H](c4ccc(Br)c(Cl)c4)C3(Cl)Cl)ccc2Cl)c1F` (relative stereo) [F325, N-(3-Amino-2,4-difluorophenyl)-5-(trans-3-(4-bromo-3-chlorophenyl)-2,2-dichlorocyclopropane-1-carboxamido)-2-chlorobenzamide]: the pest or weed control at 50 µg/cm2 in assay [1] (setting [4]) and in assay [2] (setting [5]) was 50 to 100% each time. Moreover, the “YFM (Biological Results, rating)” value in assay [3] is recorded as “A (80-100)”.

As for `CN(C(=O)c1cccc(NC(=O)[C@H]2[C@H](c3cc(Cl)cc(Cl)c3)C2(Cl)Cl)c1)c1ccc(F)cc1` (relative stereo) [F273, trans-3-(2,2-Dichloro-3-(3,5-dichlorophenyl)cyclopropane-1-carboxamido)-N-(4-fluorophenyl)-N-methylbenzamide], the pest or weed control at 50 µg/cm2 in assay [1] (setting [4]) and in assay [2] (setting [5]) was 50 to 100% in each case. In addition, the “YFM (Biological Results, rating)” value in assay [3] was “A (80-100)”.

The values are drawn from patent publication US10219516B2, “Molecules having pesticidal utility, and intermediates, compositions, and processes, related thereto” (priority 2015, dated 2019).
